Values quoted from earlier work in patent US20050215535A1, “Sequential SPRM/progestin treatment” (priority 2004, published 2005).

Assays:
[1] = target: T1, progesterone receptor (Oryctolagus cuniculus, UniProt P06186); conditions: rabbit model; for McPhail score: scale of 0-4
T1 construct: SPRMs score lower than progesterone in the McPhail bioassay in rabbits; from tissue; host or cells: living rabbit (in vivo; the endometrium as read-out tissue is own knowledge of the McPhail test)
T1 sequence (P06186 1-930): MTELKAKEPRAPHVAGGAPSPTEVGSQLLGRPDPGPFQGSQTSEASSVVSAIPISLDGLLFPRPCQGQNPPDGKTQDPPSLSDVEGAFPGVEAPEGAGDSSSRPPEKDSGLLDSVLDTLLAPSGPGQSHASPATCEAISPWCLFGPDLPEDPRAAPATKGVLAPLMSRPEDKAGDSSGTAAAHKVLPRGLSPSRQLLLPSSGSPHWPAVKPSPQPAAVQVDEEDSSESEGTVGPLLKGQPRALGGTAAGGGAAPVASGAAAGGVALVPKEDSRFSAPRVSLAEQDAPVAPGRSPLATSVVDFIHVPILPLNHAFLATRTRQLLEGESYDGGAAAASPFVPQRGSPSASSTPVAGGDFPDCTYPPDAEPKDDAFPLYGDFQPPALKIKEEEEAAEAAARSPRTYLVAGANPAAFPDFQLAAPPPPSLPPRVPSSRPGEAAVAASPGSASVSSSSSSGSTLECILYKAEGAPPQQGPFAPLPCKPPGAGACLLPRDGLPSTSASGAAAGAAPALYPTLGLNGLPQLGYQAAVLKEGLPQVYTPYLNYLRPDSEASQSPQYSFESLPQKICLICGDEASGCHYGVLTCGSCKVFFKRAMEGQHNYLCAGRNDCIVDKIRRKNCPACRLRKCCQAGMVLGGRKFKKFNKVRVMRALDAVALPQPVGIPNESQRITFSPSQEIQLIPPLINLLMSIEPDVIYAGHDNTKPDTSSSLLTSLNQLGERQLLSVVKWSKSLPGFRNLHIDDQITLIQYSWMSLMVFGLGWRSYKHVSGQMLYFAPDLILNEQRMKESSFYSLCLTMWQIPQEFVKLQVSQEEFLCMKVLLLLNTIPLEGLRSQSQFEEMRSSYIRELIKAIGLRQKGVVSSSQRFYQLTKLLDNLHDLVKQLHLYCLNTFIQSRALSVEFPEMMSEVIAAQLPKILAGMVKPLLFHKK

[2] = tested on: premenopausal women

CC#C[C@]1(O)CC[C@H]2[C@@H]3CCC4=CC(=O)CCC4=C3[C@@H](c3ccc(N(C)C)cc3)C[C@@]21C [RU486, mifepristone]
agonist activity in the McPhail test [1]: do not show any agonist activity
McPhail score [1]: less than 0.5

CN(C)c1ccc([C@H]2C[C@]3(C)[C@@H](CC[C@]3(O)CCCO)[C@@H]3CCC4=CC(=O)CCC4=C32)cc1 [onapristone]
agonist activity in the McPhail test [1]: do not show any agonist activity

CC(=O)[C@H]1CC[C@H]2[C@@H]3CCC4=CC(=O)CC[C@]4(C)[C@H]3CC[C@]12C [progesterone]
McPhail score [1]: 4

COC[C@]1(OC)CC[C@H]2[C@@H]3CCC4=CC(=O)CCC4=C3[C@@H](c3ccc(/C=N/O)cc3)C[C@@]21C [J867]
time to withdrawal bleeding (start of spontaneous menstrual cycle) after stopping the SPRM treatment ([2]; all subjects): up to 90 days
resumption of menstruation after cessation of treatment ([2]; majority of subjects): ≤ 30 days
